This passage reports relative viability results from the supplement of paper PMC10307832.

Common to all, as to experiment: relative viability (nuclei count vs DMSO), 5 days (fraction); higher = more cells survive
Compound in the assay “Avagacestat + Trametinib”: NC(=O)[C@@H](CCC(F)(F)F)N(Cc1ccc(-c2ncon2)cc1F)S(=O)(=O)c1ccc(Cl)cc1 [Avagacestat] + CC(=O)Nc1cccc(-n2c(=O)n(C3CC3)c(=O)c3c(Nc4ccc(I)cc4F)n(C)c(=O)c(C)c32)c1 [Trametinib] (partner 0.02 µM)
An outline of the steps: (§1)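 Lung cancer cell lines were seeded in 1536-well plates and dosed by pin tool the next day, with either a single drug or a fixed anchor-drug dose combined with five library-drug doses (not always all listed) spaced in √10 steps. Five days later, one step fixed the cells and stained their nuclei (final 0.05% Triton X-100, 1% formaldehyde, 1 ug/ml Hoechst), and nuclei were counted on 4× images. Relative viability is the nuclei count in treated wells divided by the count in vehicle wells, and each value is the median of duplicate plates.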

Compound in the assay “Avagacestat + Navitoclax”: NC(=O)[C@@H](CCC(F)(F)F)N(Cc1ccc(-c2ncon2)cc1F)S(=O)(=O)c1ccc(Cl)cc1 [Avagacestat] + CC1(C)CCC(c2ccc(Cl)cc2)=C(CN2CCN(c3ccc(C(=O)NS(=O)(=O)c4ccc(N[C@H](CCN5CCOCC5)CSc5ccccc5)c(S(=O)(=O)C(F)(F)F)c4)cc3)CC2)C1 [Navitoclax] (partner 0.5 µM)
An outline of the steps: as §1

Compound in the assay “Avagacestat + Phenformin”: NC(=O)[C@@H](CCC(F)(F)F)N(Cc1ccc(-c2ncon2)cc1F)S(=O)(=O)c1ccc(Cl)cc1 [Avagacestat] + N=C(N)NC(=N)NCCc1ccccc1 [Phenformin] (partner 250 µM)
An outline of the steps:
as §1

Compound in the assay “Avagacestat + Pemetrexed”: NC(=O)[C@@H](CCC(F)(F)F)N(Cc1ccc(-c2ncon2)cc1F)S(=O)(=O)c1ccc(Cl)cc1 [Avagacestat] + Nc1nc2[nH]cc(CCc3ccc(C(=O)N[C@@H](CCC(=O)O)C(=O)O)cc3)c2c(=O)[nH]1 [Pemetrexed] (partner 0.2 µM)
An outline of the steps:
as §1

On to NCI-H2009, for which the relative viability with Avagacestat + Trametinib (first compound 0.08 µM) was determined as 0.267; in the assay with Avagacestat + Trametinib (first compound 0.253 µM), 0.245; with Avagacestat + Trametinib (first compound 0.8 µM), 0.283; with Avagacestat + Trametinib (first compound 2.53 µM) it was 0.252; in the assay with Avagacestat + Trametinib (first compound 8 µM), 0.251; with Avagacestat + Navitoclax (first compound 0.08 µM), 1.27. Further, the relative viability was found to be 1.23 with Avagacestat + Navitoclax (first compound 0.253 µM); 1.17 with Avagacestat + Navitoclax (first compound 0.8 µM); 1.12 with Avagacestat + Navitoclax (first compound 2.53 µM); 1.13 with Avagacestat + Navitoclax (first compound 8 µM); 0.562 with Avagacestat + Phenformin (first compound 0.08 µM); 0.595 in the assay with Avagacestat + Phenformin (first compound 0.253 µM). Further, the relative viability with Avagacestat + Phenformin (first compound 0.8 µM) turned out to be 0.514; with Avagacestat + Phenformin (first compound 2.53 µM) it was 0.491; in the assay with Avagacestat + Phenformin (first compound 8 µM), 0.455; with Avagacestat + Pemetrexed (first compound 0.08 µM), 1.16; with Avagacestat + Pemetrexed (first compound 0.253 µM) it was 1.15; with Avagacestat + Pemetrexed (first compound 0.8 µM), 1.11. The relative viability turned out to be 1.02 with Avagacestat + Pemetrexed (first compound 2.53 µM) and 0.975 with Avagacestat + Pemetrexed (first compound 8 µM).

As to NCI-H1650, the relative viability was 0.696 with Avagacestat + Trametinib (first compound 0.08 µM); 0.614 in the assay with Avagacestat + Trametinib (first compound 0.253 µM); 0.73 in the assay with Avagacestat + Trametinib (first compound 0.8 µM); 0.678 in the assay with Avagacestat + Trametinib (first compound 2.53 µM); 0.588 with Avagacestat + Trametinib (first compound 8 µM); 1.1 with Avagacestat + Navitoclax (first compound 0.08 µM). Moreover, the relative viability in the assay with Avagacestat + Navitoclax (first compound 0.253 µM) was found to be 1.31; with Avagacestat + Navitoclax (first compound 0.8 µM), 1.52; with Avagacestat + Navitoclax (first compound 2.53 µM), 1.43; with Avagacestat + Navitoclax (first compound 8 µM) it was 1.12; in the assay with Avagacestat + Phenformin (first compound 0.08 µM) it was 0.446; with Avagacestat + Phenformin (first compound 0.253 µM), 0.416. In addition, the relative viability was 0.484 with Avagacestat + Phenformin (first compound 0.8 µM); 0.455 with Avagacestat + Phenformin (first compound 2.53 µM); 0.412 with Avagacestat + Phenformin (first compound 8 µM); 0.357 in the assay with Avagacestat + Pemetrexed (first compound 0.08 µM); 0.387 with Avagacestat + Pemetrexed (first compound 0.253 µM); 0.365 in the assay with Avagacestat + Pemetrexed (first compound 0.8 µM). The relative viability worked out at 0.381 in the assay with Avagacestat + Pemetrexed (first compound 2.53 µM) and 0.382 with Avagacestat + Pemetrexed (first compound 8 µM).

In the case of NCI-H1975, the relative viability with Avagacestat + Trametinib (first compound 0.08 µM) is 0.305; in the assay with Avagacestat + Trametinib (first compound 0.253 µM), 0.361; in the assay with Avagacestat + Trametinib (first compound 0.8 µM), 0.429; with Avagacestat + Trametinib (first compound 2.53 µM), 0.33; with Avagacestat + Trametinib (first compound 8 µM), 0.361; with Avagacestat + Navitoclax (first compound 0.08 µM) it was 1.26. Also, the relative viability with Avagacestat + Navitoclax (first compound 0.253 µM) came out at 1.28; in the assay with Avagacestat + Navitoclax (first compound 0.8 µM), 1.25; in the assay with Avagacestat + Navitoclax (first compound 2.53 µM) it was 1.07; in the assay with Avagacestat + Navitoclax (first compound 8 µM), 1.02; with Avagacestat + Phenformin (first compound 0.08 µM), 0.48; with Avagacestat + Phenformin (first compound 0.253 µM), 0.422. Besides, the relative viability with Avagacestat + Phenformin (first compound 0.8 µM) is 0.42; with Avagacestat + Phenformin (first compound 2.53 µM), 0.398; with Avagacestat + Phenformin (first compound 8 µM) it was 0.42; with Avagacestat + Pemetrexed (first compound 0.08 µM), 0.312; with Avagacestat + Pemetrexed (first compound 0.253 µM) it was 0.325; in the assay with Avagacestat + Pemetrexed (first compound 0.8 µM) it was 0.316. The figures for the relative viability with Avagacestat + Pemetrexed (first compound 2.53 µM) and with Avagacestat + Pemetrexed (first compound 8 µM) were 0.291 and 0.308, respectively.

As to SW 1573, the relative viability turned out to be 0.75 in the assay with Avagacestat + Trametinib (first compound 0.08 µM); 0.679 with Avagacestat + Trametinib (first compound 0.253 µM); 0.519 with Avagacestat + Trametinib (first compound 0.8 µM); 0.629 with Avagacestat + Trametinib (first compound 2.53 µM); 0.462 with Avagacestat + Trametinib (first compound 8 µM); 1.3 with Avagacestat + Navitoclax (first compound 0.08 µM). The relative viability is 0.97 with Avagacestat + Navitoclax (first compound 0.253 µM); 0.989 with Avagacestat + Navitoclax (first compound 0.8 µM); 1.04 with Avagacestat + Navitoclax (first compound 2.53 µM); 0.974 with Avagacestat + Navitoclax (first compound 8 µM); 0.498 in the assay with Avagacestat + Phenformin (first compound 0.08 µM); 0.431 with Avagacestat + Phenformin (first compound 0.253 µM). The relative viability with Avagacestat + Phenformin (first compound 0.8 µM) was found to be 0.366; with Avagacestat + Phenformin (first compound 2.53 µM), 0.369; with Avagacestat + Phenformin (first compound 8 µM) it was 0.341; with Avagacestat + Pemetrexed (first compound 0.08 µM) it was 0.99; in the assay with Avagacestat + Pemetrexed (first compound 0.253 µM), 1.01; with Avagacestat + Pemetrexed (first compound 0.8 µM) it was 0.925. In addition, the relative viability came to 0.887 with Avagacestat + Pemetrexed (first compound 2.53 µM) and 0.85 with Avagacestat + Pemetrexed (first compound 8 µM).

As for LU99A, the relative viability worked out at 0.515 with Avagacestat + Trametinib (first compound 0.08 µM); 0.485 with Avagacestat + Trametinib (first compound 0.253 µM); 0.555 in the assay with Avagacestat + Trametinib (first compound 0.8 µM); 0.485 with Avagacestat + Trametinib (first compound 2.53 µM); 0.534 in the assay with Avagacestat + Trametinib (first compound 8 µM); 0.869 with Avagacestat + Navitoclax (first compound 0.08 µM). The relative viability in the assay with Avagacestat + Navitoclax (first compound 0.253 µM) stood at 0.8; with Avagacestat + Navitoclax (first compound 0.8 µM) it was 0.776; with Avagacestat + Navitoclax (first compound 2.53 µM), 0.852; with Avagacestat + Navitoclax (first compound 8 µM) it was 0.777; in the assay with Avagacestat + Phenformin (first compound 0.08 µM), 0.867; in the assay with Avagacestat + Phenformin (first compound 0.253 µM), 0.944. Besides, the relative viability came out at 0.923 in the assay with Avagacestat + Phenformin (first compound 0.8 µM); 0.821 with Avagacestat + Phenformin (first compound 2.53 µM); 0.902 with Avagacestat + Phenformin (first compound 8 µM); 0.25 with Avagacestat + Pemetrexed (first compound 0.08 µM); 0.232 with Avagacestat + Pemetrexed (first compound 0.253 µM); 0.182 with Avagacestat + Pemetrexed (first compound 0.8 µM). For the same cell line, the relative viability came out at 0.226 with Avagacestat + Pemetrexed (first compound 2.53 µM) and 0.155 with Avagacestat + Pemetrexed (first compound 8 µM).
